Like-named read-outs stand apart in the source and are kept apart here.
What was measured:
Motoraktivität = assay: Actimetry (motor activity, photocell actimeter); assay type: in vivo, Maus; conditions: for Motilität: i.p., direction of change; for minimal effective dose: ip, read-out: Erste wirksame Dosis Motilität
Source text: Die Motoraktivität wird mittels Photozellenaktimetern bestimmt (Boissier und Simon, Arch. Int. Pharmacodyn. 1965, 158, 212-221).
Die Mäuse (10 oder ein Vielfaches von 10 pro Gruppe) werden unmittelbar nach i.p. Verabreichung der zu untersuchenden Verbindungen in das Aktimeter eingesetzt. Die Motoraktivität wird danach bis zur 60. Minute gemessen. De Zähler werden nach 30 Minuten abgelesen und dann auf 0 zurückgestellt und im Verlauf von 30 Minuten alle 10 Minuten abgelesen.
Die Beweglichkeit der mit den verschiedenen Verbindungen behandelten Tiere wird mit derjenigen einer destilliertes Wasser erhaltenden Kontrollgruppe verglichen.
Die eine psychostimulierende Aktivität besitzenden Produkte verursachen eine Zunahme der Beweglichkeit.

Maus [1] = assay: Tail suspension test; assay type: in vivo; conditions: for minimal effective dose: ip, read-out: Erste wirksame Dosis T.S.T. Maus
Source text: Schwanzaufhängungstest an der Maus wie von Stéru u.a. beschrieben (Psychopharmacology 85, 367-370, 1985).
Die Substanzen werden intraperitoneal 30 Minuten vor dem Test verabreicht und die Tiese isoliert (10 Mäuse pro Dosis).
Man bewertet die Dauer der Unbeweglichkeit, ausgedrückt in Sekunden über die 6 Minuten des Tests. Man untersucht auf eine Verkürzung dieser Unbeweglichkeitszeit.

Toxizität des Yohimbins = assay: Potentiation of yohimbine toxicity; assay type: in vivo, Maus; conditions: ip
Experimental: Wirkung auf die Toxizität des Yohimbins
Zur Zeit 0 erhalten die Mäuse entweder destilliertes Wasser oder verschiedene zu untersuchende Verbindungen i.p. 30 Minuten danach verabreicht man ihnen subkutan eine infratoxische Dosis von 25 mg/kg Yohimbinchlorhydrat.
Die Mortalität wird jede Stunde über einen Zeitraum von 4 Stunden verfolgt und dann nach 24 Stunden notiert.
Die eine antidepressive Aktivität besitzenden Produkte verursachen eine Potenzierung der Toxizität des Yohimbins.

Maus [2] = assay: Behavioural despair test (Porsolt forced swimming); assay type: in vivo; conditions: mouse; for Dauer der Unbeweglichkeit: 30 min before test
Source text: Test auf verzweifeltes Verhalten, wie von Porsolt u.a. (Arch. Int, Pharmacodyn. Ther. 229, 327 - 336, 1977) beschrieben.
Die Verbindungen werden intraperetoneal 30 Minuten vor dem Test verabreicht, und die Tiere werden vor dem erzwungenen Schwimmtest isoliert gehalten. Man bewertet die Dauer der Unbeweglichkeitsperioden in Sekunden ausgedrückt, die von der 2. bis zur 6. Minute nach dem Einsetzen des Tieres in Wasser gezählt werden.

[3] = test system: durch Reserpin induzierten Hypothermie; assay: Antireserpine activity (reserpine-induced hypothermia); assay type: in vivo, Maus; conditions: ip
Experimental: Zur Zeit 0 erhalten die Mäuse intraperitoneal Reserpin (2,5 mg/kg).
4 Stunden danach, wenn die Hypothermie genügend stark erscheint (30 bis 33°C), verabreicht man die verschiedenen zu untersuchenden Verbindungen i.p. oder p.o. Alle 30 Minuten über einen Zeitraum von 2 Stunden mißt man die Rektaltemperatur mit einer auf konstante Tiefe eingeführten, ein Thermoelement tragenden Sonde. Die Rektaltemperatur der mit verschiedenen erfindungsgemäßen Verbindungen behandelten Tiere wird mit der Temperatur einer Kontrollgruppe verglichen, die destilliertes Wasser auf die gleiche Weise wie die untersuchten Verbindungen erhält.
Die Akinesie (fehlende Bewegungen) und Ptose (Öffnungsgrad des Augenlids von 0 bis 4 nach Rubin u.a 1957) werden ebenfalls alle 30 Minuten über einen Zeitraum von 2 Stunden bewertet.
Die eine antidepressive Aktivität besitzenden Produkte wirken der durch Reserpin induzierten Hypothermie entgegen. Für jede Dosis der verabreichten Verbindung berechnet man die prozentuale Hemmung der Hypothermie.

[4] = test system: Apomorphin 1 mg.kg^-1 s.c.; assay: Apomorphine 1 mg/kg s.c. antagonism (no method given); assay type: in vivo; conditions: ip, Tabelle Ib; read-out: Erste wirksame Dosis Apomorphin 1 mg.kg^-1 s.c.
Apomorphin 16 mg/kg = assay: Antiapomorphine activity (apomorphine 16 mg/kg s.c., hypothermia); assay type: in vivo, Maus; conditions: ip
Experimental: Zur Zeit 0 nach Ausgleich der Reaktaltemperaturen werden die Mäuse (6 pro Gruppe) in deren Beobachtung gestattende Einzelkäfige (11 x 3,5 x 4 cm) eingeetzt. 30 Minuten nach i.p. bzw. p.o. Verabreichung der Testsubstanz erhalten sie Apomorphin subkutan in einer Dosis von 16 mg/kg. Die Rektaltemperatur wird 30 Minuten nach dem Apomorphin gemessen. Die Kontrolltiere erhalten destilliertes Wasser statt der zu untersuchenden Verbindungen. Die bei diesen Kontrolltieren, die 16 mg/kg Apomorphin erhalten haben, beobachtete Hypothermie liegt im Durchschnitt bei 33°C. Für jede Verbindungsdosis berechnet man die prozentuale Hemmung der Hypothermie.

[5] = test system: durch Oxotremorin induzierten Hypothermie; assay: Antioxotremorine activity (oxotremorine-induced hypothermia); assay type: in vivo, Maus; conditions: ip, read-out: Erste wirksame Dosis Oxotremorin
Experimental: Nach Ausgleich der Rektaltemperaturen erhalten Mäuse (6 pro Gruppe) entweder destillietes Wasser oder die verschiedenen zu untersuchenden Verbindungen i.p.
30 Minuten danach verabreicht man intraperitoneal Oxotremorin in einer Dosis von 0,5 mg/kg.
Die Mäuse werden dan beobachtet: Tremor wird je nach der Intensität von 0 bis 3 bewertet, und die Akinesie wird alle 10 Minuten über einen Zeitraum von 30 Minuten auf Vorliegen oder Fehlen bestimmt.
Außerdem beobachtet man 2 Stunden lang das Erscheinen peripherer Symptome (Tränen, Darmentleerung). Die Rektaltemperatur wird alle 30 Minuten über eine Zeitraum von 2 Stunden nach der Verabreichung des Oxotremorins gemessen.
Die eine antidepressive Aktivität besitzenden Produkte wirken der durch Oxotremorin induzierten Hypothermie entgegen.
Für jede Dosis der Verbindung berechnet man die prozentuale Hemmung der Hypothermie.

[6] = Tabelle Ib, read-out: Erste wirksame Dosis Yohimbin
[7] = Tabelle Ib, read-out: Erste wirksame Dosis Reserpin
[8] = Tabelle Ib, read-out: Erste wirksame Dosis Apomorphin 16 mg.kg^-1 s.c.

Compound | Motilität (Motoraktivität; Tabelle Ib) | minimal effective dose (Motoraktivität; Tabelle Ib) | minimal effective dose (Maus [1]; Tabelle Ib) | % Antagonismus (Maus [1]; mouse, 1 mg/kg i.p.) | Dauer der Unbeweglichkeit (Maus [1]; mouse, 1 mg/kg i.p.) | % Antagonismus (Maus [1]; mouse, 4 mg/kg i.p.) | Dauer der Unbeweglichkeit (Maus [1]; mouse, 4 mg/kg i.p.) | minimal effective dose (Toxizität des Yohimbins; [6]) | minimal effective dose [3, 7] | minimal effective dose [4] | minimal effective dose (Apomorphin 16 mg/kg; [8]) | minimal effective dose [5] | other results
CN(C)CCCN1c2ccccc2CCc2ccccc21 [IMIPRAMIN] | ↘ | 128 mg/kg | 1 to 4 mg/kg | 31% | 70 ± 17 Sekunden | 48% | 53 ± 11 p < 0,01 Sekunden | 16 mg/kg | 2 mg/kg | 8 mg/kg | 4 mg/kg | – | % Antagonismus (Maus [1]; mouse, 2 mg/kg i.p.): 42%; Dauer der Unbeweglichkeit (Maus [1]; mouse, 2 mg/kg i.p.): 59 ± 8 p < 0,01 Sekunden; % Antagonismus (Maus [1]; mouse, 8 mg/kg i.p.): 58%; Dauer der Unbeweglichkeit (Maus [1]; mouse, 8 mg/kg i.p.): 48 ± 10 p < 0,01 Sekunden; % Antagonismus (Maus [1]; mouse, 16 mg/kg i.p.): 73%; Dauer der Unbeweglichkeit (Maus [1]; mouse, 16 mg/kg i.p.): 28 ± 7 p < 0,001 Sekunden; % Antagonismus (Maus [2]; 16 mg/kg i.p.): 37%; Dauer der Unbeweglichkeit (Maus [2]; 16 mg/kg i.p.): 112 ± 23 p < 0,05 Sekunden
CN1CCN2c3ccccc3Cc3ccccc3C2C1 (stereo not drawn) [MIANSERIN, reference compound] | ↘ | 32 mg/kg | – | – | – | – | – | – | > 32 mg/kg | 64 mg/kg | 64 mg/kg | – | minimal effective dose ([5]; Tabelle Ib): 32 mg/kg
CN1Cc2c(N)cccc2C(c2ccccc2)C1 (stereo not drawn) [NOMIFENSIN] | ↗ | 4 mg/kg | 0.25 mg/kg | 66% | 31 ± 6 p < 0,01 Sekunden | 80% | 18 ± 5 p < 0,001 Sekunden | 4 mg/kg | 8 mg/kg | 2 mg/kg | 2 mg/kg | 16 mg/kg | % Antagonismus (Maus [1]; mouse, 0,06 mg/kg i.p.): 35%; Dauer der Unbeweglichkeit (Maus [1]; mouse, 0,06 mg/kg i.p.): 59 ± 9 Sekunden; % Antagonismus (Maus [1]; mouse, 0,25 mg/kg i.p.): 55%; Dauer der Unbeweglichkeit (Maus [1]; mouse, 0,25 mg/kg i.p.): 41 ± 6 p < 0,01 Sekunden; % Antagonismus (Maus [2]; 4 mg/kg i.p.): 39%; Dauer der Unbeweglichkeit (Maus [2]; 4 mg/kg i.p.): 120 ± 23 p < 0,001 Sekunden
CCOc1ccccc1OCC1CNCCO1 (stereo not drawn) [VILOXAZIN, reference compound] | ↘ | – | – | – | – | – | – | – | – | > 32 mg/kg | – | 4 mg/kg | minimal effective dose (Motoraktivität): 16 mg/kg; minimal effective dose (Maus [1]): 8 mg/kg; minimal effective dose (Toxizität des Yohimbins; read-out: Erste wirksame Dosis Yohimbin, i.p., Tabelle Ib): 8 mg/kg; minimal effective dose ([3]; read-out: Erste wirksame Dosis Reserpin, i.p., Tabelle Ib): 4 mg/kg; minimal effective dose (Apomorphin 16 mg/kg; read-out: Erste wirksame Dosis Apomorphin 16 mg.kg^-1 s.c., i.p., Tabelle Ib): 8 mg/kg

From patent EP0273199A2, “Uses of 3,4-diphenyl piperidine derivatives or medicines, 3,4-diphenyl piperidine derivatives, and process for their preparation” (LABORATOIRES HOECHST S.A., priority 1986, dated 1988)
